Measurements published in PubChem BioAssay (NCI).
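Step 1: Grow cells in 96-well plates. Step 2: Expose to compound for 48 hours at 5 concentrations. Step 3: Interpolate endpoints linearly; if unreached, use highest concentration. GI50: concentration for 50% inhibition of growth. TGI: concentration producing complete growth inhibition.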

Columns and labels:
Test in all cases: NCI tumour cell line growth inhibition, 48 h
TK-10 renal = system: TK-10 renal
SF-295 CNS = system: SF-295 CNS
UO-31 renal = system: UO-31 renal
NCI-H460 lung = system: NCI-H460 lung
MCF7 breast = system: MCF7 breast
OVCAR-8 ovarian = system: OVCAR-8 ovarian
HCC-2998 colon = system: HCC-2998 colon
CAKI-1 renal = system: CAKI-1 renal
LOX IMVI melanoma = system: LOX IMVI melanoma
MALME-3M melanoma = system: MALME-3M melanoma
SK-OV-3 ovarian = system: SK-OV-3 ovarian
COLO 205 colon = system: COLO 205 colon
IGROV1 ovarian = system: IGROV1 ovarian
MOLT-4 leukemia = system: MOLT-4 leukemia
EKVX NSCLC = system: EKVX NSCLC
UACC-257 melanoma = system: UACC-257 melanoma
NCI-H226 lung = system: NCI-H226 lung
K-562 leukemia = system: K-562 leukemia
SW-620 colon = system: SW-620 colon
HCT-116 colon = system: HCT-116 colon
KM12 colon = system: KM12 colon
PC-3 prostate = system: PC-3 prostate
HL-60(TB) leukemia = system: HL-60(TB) leukemia
SK-MEL-28 melanoma = system: SK-MEL-28 melanoma
SR leukemia = system: SR leukemia
NCI/ADR-RES ovarian = system: NCI/ADR-RES ovarian
UACC-62 melanoma = system: UACC-62 melanoma
SNB-75 CNS = system: SNB-75 CNS
BT-549 breast = system: BT-549 breast
ACHN renal = system: ACHN renal
SN12C renal = system: SN12C renal
SF-268 CNS = system: SF-268 CNS
M14 melanoma = system: M14 melanoma
HT29 colon = system: HT29 colon
OVCAR-5 ovarian = system: OVCAR-5 ovarian
MDA-MB-435 = system: MDA-MB-435
SF-539 CNS = system: SF-539 CNS
SNB-19 CNS = system: SNB-19 CNS
DU-145 prostate = system: DU-145 prostate
RPMI-8226 leukemia = system: RPMI-8226 leukemia
OVCAR-4 ovarian = system: OVCAR-4 ovarian
U251 CNS = system: U251 CNS
SK-MEL-5 melanoma = system: SK-MEL-5 melanoma
HS 578T breast = system: HS 578T breast
HOP-92 NSCLC = system: HOP-92 NSCLC
T-47D breast = system: T-47D breast
CCRF-CEM leukemia = system: CCRF-CEM leukemia
786-0 renal = system: 786-0 renal
A549 NSCLC = system: A549 NSCLC
SK-MEL-2 melanoma = system: SK-MEL-2 melanoma
NCI-H522 lung = system: NCI-H522 lung
OVCAR-3 ovarian = system: OVCAR-3 ovarian
HCT-15 colon = system: HCT-15 colon
RXF 393 renal = system: RXF 393 renal
HOP-62 NSCLC = system: HOP-62 NSCLC
A498 renal = system: A498 renal
MDA-MB-231 breast = system: MDA-MB-231 breast

N#Cc1c(-n2c(Br)c(Br)c3cc(Br)ccc32)[nH]c2c(Br)cc(Br)cc12
GI50 (TK-10 renal): 1.59 µM | TGI (TK-10 renal): 4.54 µM | GI50 (SF-295 CNS): 0.878 µM | TGI (SF-295 CNS): 2 µM | GI50 (UO-31 renal): 5.45 µM | TGI (UO-31 renal): 16.1 µM | GI50 (NCI-H460 lung): 1.48 µM | TGI (NCI-H460 lung): 6.03 µM | GI50 (MCF7 breast): 1.16 µM | TGI (MCF7 breast): 7.11 µM | GI50 (OVCAR-8 ovarian): 1.66 µM | TGI (OVCAR-8 ovarian): > 29.4 µM | GI50 (HCC-2998 colon): 1.32 µM | TGI (HCC-2998 colon): 15.7 µM | GI50 (CAKI-1 renal): 1.55 µM | TGI (CAKI-1 renal): 9.73 µM | GI50 (LOX IMVI melanoma): 5.74 µM | TGI (LOX IMVI melanoma): 15.7 µM | GI50 (MALME-3M melanoma): 1.68 µM | TGI (MALME-3M melanoma): 7.21 µM | GI50 (SK-OV-3 ovarian): 1.41 µM | TGI (SK-OV-3 ovarian): 4.18 µM | GI50 (COLO 205 colon): 1.1 µM | TGI (COLO 205 colon): 3.09 µM | GI50 (IGROV1 ovarian): 2.14 µM | TGI (IGROV1 ovarian): > 50 µM | GI50 (MOLT-4 leukemia): 1.31 µM | TGI (MOLT-4 leukemia): 4.09 µM | GI50 (EKVX NSCLC): 2.04 µM | TGI (EKVX NSCLC): > 50 µM | GI50 (UACC-257 melanoma): 1.38 µM | TGI (UACC-257 melanoma): 5.74 µM | GI50 (NCI-H226 lung): 1.14 µM | TGI (NCI-H226 lung): 3.2 µM | GI50 (K-562 leukemia): 0.735 µM | TGI (K-562 leukemia): > 50 µM | GI50 (SW-620 colon): 1.59 µM | TGI (SW-620 colon): > 50 µM | GI50 (HCT-116 colon): 0.986 µM | TGI (HCT-116 colon): 2.99 µM | GI50 (KM12 colon): 1.45 µM | TGI (KM12 colon): 6.41 µM | GI50 (PC-3 prostate): 0.982 µM | TGI (PC-3 prostate): 3.99 µM | GI50 (HL-60(TB) leukemia): 1.24 µM | TGI (HL-60(TB) leukemia): 2.95 µM | GI50 (SK-MEL-28 melanoma): 1.49 µM | TGI (SK-MEL-28 melanoma): 8.53 µM | GI50 (SR leukemia): 1.22 µM | TGI (SR leukemia): 6.12 µM | GI50 (NCI/ADR-RES ovarian): 1.2 µM | TGI (NCI/ADR-RES ovarian): 3.63 µM | GI50 (UACC-62 melanoma): 1.14 µM | TGI (UACC-62 melanoma): 3.21 µM | GI50 (SNB-75 CNS): 0.954 µM | TGI (SNB-75 CNS): 3.79 µM | GI50 (BT-549 breast): 1.16 µM | TGI (BT-549 breast): 2.64 µM | GI50 (ACHN renal): 3.23 µM | TGI (ACHN renal): > 50 µM | GI50 (SN12C renal): 1.27 µM | TGI (SN12C renal): > 17.9 µM | GI50 (SF-268 CNS): 1.5 µM | TGI (SF-268 CNS): > 50 µM | GI50 (M14 melanoma): 1.49 µM | TGI (M14 melanoma): 7.6 µM | GI50 (HT29 colon): 1.48 µM | TGI (HT29 colon): 5.23 µM | GI50 (OVCAR-5 ovarian): 2.95 µM | TGI (OVCAR-5 ovarian): > 50 µM | GI50 (MDA-MB-435): 2.02 µM | TGI (MDA-MB-435): 9.38 µM | GI50 (SF-539 CNS): 1.47 µM | TGI (SF-539 CNS): > 39.6 µM | GI50 (SNB-19 CNS): 1.34 µM | TGI (SNB-19 CNS): > 50 µM | GI50 (DU-145 prostate): 2.25 µM | TGI (DU-145 prostate): > 50 µM | GI50 (RPMI-8226 leukemia): 0.859 µM | TGI (RPMI-8226 leukemia): 2.56 µM | GI50 (OVCAR-4 ovarian): 1.57 µM | TGI (OVCAR-4 ovarian): > 50 µM | GI50 (U251 CNS): 1.19 µM | TGI (U251 CNS): > 31.4 µM | GI50 (SK-MEL-5 melanoma): 0.907 µM | TGI (SK-MEL-5 melanoma): 1.91 µM | GI50 (HS 578T breast): 1.06 µM | TGI (HS 578T breast): 3.56 µM | GI50 (HOP-92 NSCLC): 0.383 µM | TGI (HOP-92 NSCLC): 1.9 µM | GI50 (T-47D breast): 1.09 µM | TGI (T-47D breast): 6.48 µM | GI50 (CCRF-CEM leukemia): 1.38 µM | TGI (CCRF-CEM leukemia): > 18.2 µM | GI50 (786-0 renal): 1.58 µM | TGI (786-0 renal): 8.78 µM | GI50 (A549 NSCLC): 1.73 µM | TGI (A549 NSCLC): > 50 µM | GI50 (SK-MEL-2 melanoma): 0.882 µM | TGI (SK-MEL-2 melanoma): 1.91 µM | GI50 (NCI-H522 lung): 0.788 µM | TGI (NCI-H522 lung): 2.56 µM | GI50 (OVCAR-3 ovarian): 1.94 µM | TGI (OVCAR-3 ovarian): > 50 µM | GI50 (HCT-15 colon): 0.938 µM | TGI (HCT-15 colon): > 18.3 µM | GI50 (RXF 393 renal): 0.904 µM | TGI (RXF 393 renal): 3.48 µM | GI50 (HOP-62 NSCLC): 1.38 µM | TGI (HOP-62 NSCLC): 4.14 µM | GI50 (A498 renal): 0.767 µM | TGI (A498 renal): 2.4 µM | GI50 (MDA-MB-231 breast): 1.45 µM | TGI (MDA-MB-231 breast): > 20.6 µM
